Data published in patent US20240124427A1, “HYDROXYHETEROCYCLOALKANE-CARBAMOYL DERIVATIVES” (Idorsia Pharmaceuticals Ltd, priority 2021, published 2024).

Each molecule was assayed against human Gal-3 (hGal-3) (Homo sapiens (Human), UniProt P17931) (assay: Competitive binding assay: biotinylated hGal-3 binding to microplate-adsorbed asialofetuin (ASF)). Settings: Activity on hGal-3; mean values of several measurements; mixture of diastereomers measured where not separated.
Sequence of human Gal-3 (hGal-3) (P17931 whole entry): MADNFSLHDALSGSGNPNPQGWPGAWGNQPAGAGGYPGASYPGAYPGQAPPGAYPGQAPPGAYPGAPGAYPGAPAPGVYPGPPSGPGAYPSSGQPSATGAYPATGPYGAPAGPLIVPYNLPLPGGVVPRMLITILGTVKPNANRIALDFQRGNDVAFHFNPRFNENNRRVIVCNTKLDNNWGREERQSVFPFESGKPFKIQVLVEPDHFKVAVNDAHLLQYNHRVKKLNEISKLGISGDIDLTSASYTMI
Method: The inhibitory activity of compounds is determined in competitive binding assays. This spectrophotometric assay measures the binding of biotinylated human Gal-3 (hGal-3) or human Gal-1 (hGal-1), respectively, to a microplate-adsorbed glycoprotein, asialofetuin (ASF) (Proc Natl Acad Sci USA. 2013 Mar 26;110(13):5052-7.). Alternatively, and preferably, a human Gal-1 version in which all six cysteines are substituted by serines may be used.
Briefly, compounds are serially diluted in DMSO (working dilutions).
Plates are incubated for 3 hours at 4° C., then washed with cold assay buffer (3×50 uL), incubated for 1 hour with 25 μL/well of a streptavidin-peroxidase solution (diluted in assay buffer to 80 ng/mL) at 4° C., followed by further washing steps with assay buffer (3×50 uL). Finally, 25 μL/well of ABTS substrate is added.
The calculated IC50 values may fluctuate depending on the daily assay performance. Fluctuations of this kind are known to those skilled in the art. IC50 values from several measurements are given as mean values.
CO[C@@H]1[C@@H](n2cc(-c3ccc(C)c(F)c3F)nn2)[C@@H](O)[C@@H](CO)O[C@H]1C(=O)N(c1cc(C)cc(Br)c1)[C@H]1COC[C@@H]1O [Example 21, (2R,3R,4S,5R,6R)-N-(3-bromo-5-methylphenyl)-4-(4-(2,3-difluoro-4-methylphenyl)-1H-1,2,3-triazol-1-yl)-5-hydroxy-6-(hydroxymethyl)-N-((3S,4R)-4-hydroxytetrahydrofuran-3-yl)-3-methoxytetrahydro-2H-pyran-2-carboxamide] was tested, and the IC50 was 0.035 µM.
With CO[C@@H]1[C@@H](n2cc(-c3cc(F)c(Cl)c(F)c3)nn2)[C@@H](O)[C@@H](CO)O[C@H]1C(=O)N(c1cc(Cl)cc(Cl)c1)[C@H]1COC[C@@H]1O [Example 22, (2R,3R,4S,5R,6R)-4-(4-(4-chloro-3,5-difluorophenyl)-1H-1,2,3-triazol-1-yl)-N-(3,5-dichlorophenyl)-5-hydroxy-6-(hydroxymethyl)-N-((3S,4R)-4-hydroxytetrahydrofuran-3-yl)-3-methoxytetrahydro-2H-pyran-2-carboxamide] the IC50 was 0.05 µM.
Molecule CO[C@@H]1[C@@H](n2cc(-c3cc(F)c(Cl)c(F)c3)nn2)[C@@H](O)[C@@H](CO)O[C@H]1C(=O)N(c1cc(Br)cc(Br)c1)[C@H]1COC[C@@H]1O [Example 23, (2R,3R,4S,5R,6R)-4-(4-(4-chloro-3,5-difluorophenyl)-1H-1,2,3-triazol-1-yl)-N-(3,5-dibromophenyl)-5-hydroxy-6-(hydroxymethyl)-N-((3S,4R)-4-hydroxytetrahydrofuran-3-yl)-3-methoxytetrahydro-2H-pyran-2-carboxamide] has an IC50 of 0.055 µM.
In the case of CO[C@@H]1[C@@H](n2cc(-c3cc(F)c(Cl)c(F)c3)nn2)[C@@H](O)[C@@H](CO)O[C@H]1C(=O)N(c1cc(C)cc(Br)c1)[C@H]1COC[C@@H]1O [Example 25, (2R,3R,4S,5R,6R)-N-(3-bromo-5-methylphenyl)-4-(4-(4-chloro-3,5-difluorophenyl)-1H-1,2,3-triazol-1-yl)-5-hydroxy-6-(hydroxymethyl)-N-((3S,4R)-4-hydroxytetrahydrofuran-3-yl)-3-methoxytetrahydro-2H-pyran-2-carboxamide], the IC50 is reported as 0.031 µM.
In the case of CO[C@@H]1[C@@H](n2cc(-c3ccc(Cl)c(Cl)c3)nn2)[C@@H](O)[C@@H](CO)O[C@H]1C(=O)N(c1cc(Cl)cc(Cl)c1)[C@H]1COC[C@@H]1O [Example 26, (2R,3R,4S,5R,6R)-N-(3,5-dichlorophenyl)-4-(4-(3,4-dichlorophenyl)-1H-1,2,3-triazol-1-yl)-5-hydroxy-6-(hydroxymethyl)-N-((3S,4R)-4-hydroxytetrahydrofuran-3-yl)-3-methoxytetrahydro-2H-pyran-2-carboxamide], the IC50 is reported as 0.162 µM.
In the case of CO[C@@H]1[C@@H](n2cc(-c3ccc(Cl)c(Cl)c3)nn2)[C@@H](O)[C@@H](CO)O[C@H]1C(=O)N(c1cc(Br)cc(Br)c1)[C@H]1COC[C@@H]1O [Example 27, (2R,3R,4S,5R,6R)-N-(3,5-dibromophenyl)-4-(4-(3,4-dichlorophenyl)-1H-1,2,3-triazol-1-yl)-5-hydroxy-6-(hydroxymethyl)-N-((3S,4R)-4-hydroxytetrahydrofuran-3-yl)-3-methoxytetrahydro-2H-pyran-2-carboxamide], the IC50 is reported as 0.089 µM.
CO[C@@H]1[C@@H](n2cc(-c3ccc(Cl)c(Cl)c3)nn2)[C@@H](O)[C@@H](CO)O[C@H]1C(=O)N(c1cc(Br)cc(C#N)c1)[C@H]1COC[C@@H]1O [Example 28, (2R,3R,4S,5R,6R)-N-(3-bromo-5-cyanophenyl)-4-(4-(3,4-dichlorophenyl)-1H-1,2,3-triazol-1-yl)-5-hydroxy-6-(hydroxymethyl)-N-((3S,4R)-4-hydroxytetrahydrofuran-3-yl)-3-methoxytetrahydro-2H-pyran-2-carboxamide] was tested, and the IC50 was 0.115 µM.
With CO[C@@H]1[C@@H](n2cc(-c3ccc(Cl)c(Cl)c3)nn2)[C@@H](O)[C@@H](CO)O[C@H]1C(=O)N(c1cc(C)cc(Br)c1)[C@H]1COC[C@@H]1O [Example 29, (2R,3R,4S,5R,6R)-N-(3-bromo-5-methylphenyl)-4-(4-(3,4-dichlorophenyl)-1H-1,2,3-triazol-1-yl)-5-hydroxy-6-(hydroxymethyl)-N-((3S,4R)-4-hydroxytetrahydrofuran-3-yl)-3-methoxytetrahydro-2H-pyran-2-carboxamide] the IC50 was 0.153 µM.
Work on CO[C@@H]1[C@@H](n2cc(-c3cc(F)c(F)c(F)c3)nn2)[C@@H](O)[C@@H](CO)O[C@H]1C(=O)N(c1cccc(Cl)c1)[C@@H]1COC[C@H]1O [Example 30, (2R,3R,4S,5R,6R)-N-(3-chlorophenyl)-5-hydroxy-6-(hydroxymethyl)-N-((3R,4S)-4-hydroxytetrahydrofuran-3-yl)-3-methoxy-4-(4-(3,4,5-trifluorophenyl)-1H-1,2,3-triazol-1-yl)tetrahydro-2H-pyran-2-carboxamide] yielded an IC50 of 0.235 µM.
Molecule CO[C@@H]1[C@@H](n2cc(-c3cc(F)c(F)c(F)c3)nn2)[C@@H](O)[C@@H](CO)O[C@H]1C(=O)N(c1cccc(Br)c1)[C@@H]1COC[C@H]1O [Example 31, (2R,3R,4S,5R,6R)-N-(3-bromophenyl)-5-hydroxy-6-(hydroxymethyl)-N-((3R,4S)-4-hydroxytetrahydrofuran-3-yl)-3-methoxy-4-(4-(3,4,5-trifluorophenyl)-1H-1,2,3-triazol-1-yl)tetrahydro-2H-pyran-2-carboxamide] has an IC50 of 0.103 µM.
Molecule CO[C@@H]1[C@@H](n2cc(-c3cc(F)c(F)c(F)c3)nn2)[C@@H](O)[C@@H](CO)O[C@H]1C(=O)N(c1cccc(I)c1)[C@@H]1COC[C@H]1O [Example 32, (2R,3R,4S,5R,6R)-5-hydroxy-6-(hydroxymethyl)-N-((3R,4S)-4-hydroxytetrahydrofuran-3-yl)-N-(3-iodophenyl)-3-methoxy-4-(4-(3,4,5-trifluorophenyl)-1H-1,2,3-triazol-1-yl)tetrahydro-2H-pyran-2-carboxamide] has an IC50 of 0.13 µM.
For CO[C@@H]1[C@@H](n2cc(-c3cc(F)c(F)c(F)c3)nn2)[C@@H](O)[C@@H](CO)O[C@H]1C(=O)N(c1cc(Cl)cc(Cl)c1)[C@@H]1COC[C@H]1O [Example 33, (2R,3R,4S,5R,6R)-N-(3,5-dichlorophenyl)-5-hydroxy-6-(hydroxymethyl)-N-((3R,4S)-4-hydroxytetrahydrofuran-3-yl)-3-methoxy-4-(4-(3,4,5-trifluorophenyl)-1H-1,2,3-triazol-1-yl)tetrahydro-2H-pyran-2-carboxamide], the IC50 was 0.104 µM.
CO[C@@H]1[C@@H](n2cc(-c3cc(F)c(F)c(F)c3)nn2)[C@@H](O)[C@@H](CO)O[C@H]1C(=O)N(c1cc(Cl)cc(C#N)c1)[C@@H]1COC[C@H]1O [Example 34, (2R,3R,4S,5R,6R)-N-(3-chloro-5-cyanophenyl)-5-hydroxy-6-(hydroxymethyl)-N-((3R,4S)-4-hydroxytetrahydrofuran-3-yl)-3-methoxy-4-(4-(3,4,5-trifluorophenyl)-1H-1,2,3-triazol-1-yl)tetrahydro-2H-pyran-2-carboxamide] gave an IC50 of 0.102 µM.
CO[C@@H]1[C@@H](n2cc(-c3cc(F)c(F)c(F)c3)nn2)[C@@H](O)[C@@H](CO)O[C@H]1C(=O)N(c1cc(Br)cc(Br)c1)[C@@H]1COC[C@H]1O [Example 35, (2R,3R,4S,5R,6R)-N-(3,5-dibromophenyl)-5-hydroxy-6-(hydroxymethyl)-N-((3R,4S)-4-hydroxytetrahydrofuran-3-yl)-3-methoxy-4-(4-(3,4,5-trifluorophenyl)-1H-1,2,3-triazol-1-yl)tetrahydro-2H-pyran-2-carboxamide] gave an IC50 of 0.084 µM.
In the case of CO[C@@H]1[C@@H](n2cc(-c3cc(F)c(F)c(F)c3)nn2)[C@@H](O)[C@@H](CO)O[C@H]1C(=O)N(c1cc(C)cc(Br)c1)[C@@H]1COC[C@H]1O [Example 37, (2R,3R,4S,5R,6R)-N-(3-bromo-5-methylphenyl)-5-hydroxy-6-(hydroxymethyl)-N-((3R,4S)-4-hydroxytetrahydrofuran-3-yl)-3-methoxy-4-(4-(3,4,5-trifluorophenyl)-1H-1,2,3-triazol-1-yl)tetrahydro-2H-pyran-2-carboxamide], the IC50 is reported as 0.186 µM.
Molecule COc1cc(C#N)cc(N(C(=O)[C@@H]2O[C@H](CO)[C@H](O)[C@H](n3cc(-c4cc(F)c(F)c(F)c4)nn3)[C@H]2OC)[C@@H]2COC[C@H]2O)c1 [Example 38, (2R,3R,4S,5R,6R)-N-(3-cyano-5-methoxyphenyl)-5-hydroxy-6-(hydroxymethyl)-N-((3R,4S)-4-hydroxytetrahydrofuran-3-yl)-3-methoxy-4-(4-(3,4,5-trifluorophenyl)-1H-1,2,3-triazol-1-yl)tetrahydro-2H-pyran-2-carboxamide] has an IC50 of 0.113 µM.
CO[C@@H]1[C@@H](n2cc(-c3cc(F)c(F)c(F)c3)nn2)[C@@H](O)[C@@H](CO)O[C@H]1C(=O)N(c1cc(C)cc(C#N)c1)[C@@H]1COC[C@H]1O [Example 39, (2R,3R,4S,5R,6R)-N-(3-cyano-5-methylphenyl)-5-hydroxy-6-(hydroxymethyl)-N-((3R,4S)-4-hydroxytetrahydrofuran-3-yl)-3-methoxy-4-(4-(3,4,5-trifluorophenyl)-1H-1,2,3-triazol-1-yl)tetrahydro-2H-pyran-2-carboxamide] was tested, and the IC50 was 0.069 µM.
CO[C@@H]1[C@@H](n2cc(-c3cc(F)c(F)c(F)c3)nn2)[C@@H](O)[C@@H](CO)O[C@H]1C(=O)N(c1cc(F)cc(C#N)c1)[C@@H]1COC[C@H]1O [Example 40, (2R,3R,4S,5R,6R)-N-(3-cyano-5-fluorophenyl)-5-hydroxy-6-(hydroxymethyl)-N-((3R,4S)-4-hydroxytetrahydrofuran-3-yl)-3-methoxy-4-(4-(3,4,5-trifluorophenyl)-1H-1,2,3-triazol-1-yl)tetrahydro-2H-pyran-2-carboxamide] showed an IC50 of 0.145 µM.
